Test results taken from ChEMBL document CHEMBL1137902, “N-Sulfonyl homoserine lactones as antagonists of bacterial quorum sensing” (Bioorg Med Chem Lett, 2004).

Test system: Aliivibrio fischeri
Test: Tested for the ability to interfere with the induction of luminescence by N-3-oxohexanoyl-L-homoserine lactone in the Vibrio fischeri QS system
Type: functional, organism-based

O=C(CC(=O)NC1CCOC1=O)Cc1ccccc1 (centres undefined)
IC50: 2 µM

O=C(CCCc1ccccc1)NC1CCOC1=O (centres undefined)
IC50: 2 µM

CCCCCS(=O)(=O)NC1CCOC1=O (centres undefined)
IC50: 2 µM

CCCCCCCS(=O)(=O)NC1CCOC1=O (centres undefined)
IC50: 9 µM

O=C1OCCC1NS(=O)(=O)CCCc1ccccc1 (centres undefined)
IC50: 20 µM

O=C1OCCC1NS(=O)(=O)CCc1ccccc1 (centres undefined)
IC50: 3 µM

CCCCCCCCS(=O)(=O)NC1CCOC1=O (centres undefined)
IC50: 10 µM

CCCCS(=O)(=O)NC1CCOC1=O (centres undefined)
IC50: 12 µM

CCCCCCS(=O)(=O)NC1CCOC1=O (centres undefined)
IC50: 6.5 µM
